Data as given in paper PMC11882969 (Nature Communications, 2025).
“And” between values parts separate entries of the source, which are not always exact repeats. Equal values may be shown once. Read-outs that look alike come from different tables or passages of the source. Marks after values point to notes of the source that are not given here.

Columns and labels:
CB1 (rCB1) [1] = molecular target: T1, CB1 (rCB1) (Rattus norvegicus, UniProt P20272); experiment: Single-point radioligand displacement screen; format: binding
T1 sequence (P20272 whole entry): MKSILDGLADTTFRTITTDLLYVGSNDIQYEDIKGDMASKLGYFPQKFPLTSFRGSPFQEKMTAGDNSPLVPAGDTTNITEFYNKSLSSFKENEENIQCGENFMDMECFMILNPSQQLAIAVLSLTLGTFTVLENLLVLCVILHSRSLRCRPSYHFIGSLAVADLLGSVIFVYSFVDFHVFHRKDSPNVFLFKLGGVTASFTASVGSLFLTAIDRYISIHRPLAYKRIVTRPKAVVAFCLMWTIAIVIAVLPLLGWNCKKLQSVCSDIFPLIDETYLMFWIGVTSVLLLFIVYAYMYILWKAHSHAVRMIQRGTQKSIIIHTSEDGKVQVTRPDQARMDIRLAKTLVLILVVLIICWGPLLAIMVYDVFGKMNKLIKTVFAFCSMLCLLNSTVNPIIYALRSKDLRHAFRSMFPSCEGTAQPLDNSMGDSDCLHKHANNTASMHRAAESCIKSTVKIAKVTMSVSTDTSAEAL

hCB1 [2] = molecular target: T2, hCB1 (Homo sapiens, UniProt P21554); experiment: Lance Ultra cAMP accumulation assay, CHO cells; format: cell-based; parameters: expressed in transfected cells; details: replicates, sheet FigureS2a;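 also: human CB1R stably expressed in CHO cells, ligands co-incubated with forskolin at room temperature, read-out is lowering of forskolin-stimulated cAMP accumulation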
T2 sequence (P21554 whole entry): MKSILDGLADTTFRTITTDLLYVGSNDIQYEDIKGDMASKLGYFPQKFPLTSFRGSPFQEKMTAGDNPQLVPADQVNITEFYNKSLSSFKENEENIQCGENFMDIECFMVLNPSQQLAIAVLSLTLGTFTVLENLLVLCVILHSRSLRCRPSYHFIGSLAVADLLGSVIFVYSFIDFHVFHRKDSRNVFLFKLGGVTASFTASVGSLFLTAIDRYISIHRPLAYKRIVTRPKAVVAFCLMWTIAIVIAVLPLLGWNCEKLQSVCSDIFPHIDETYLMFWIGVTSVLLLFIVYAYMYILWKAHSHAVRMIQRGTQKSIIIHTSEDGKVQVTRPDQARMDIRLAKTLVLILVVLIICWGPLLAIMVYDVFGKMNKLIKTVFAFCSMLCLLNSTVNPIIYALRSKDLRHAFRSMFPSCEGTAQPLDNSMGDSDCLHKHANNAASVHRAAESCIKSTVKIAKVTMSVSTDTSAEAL
Experimental: The inhibition of forskolin-stimulated cAMP accumulation assays was carried out using PerkinElmer’s Lance Ultra cAMP kit following the manufacturer’s protocol. In brief, CHO cells stably expressing human CB1R (provided by the lab of Laura Bohn) were harvested by incubation with Versene (ThermoFisher Scientific, Waltham, MA) for 10 min, washed once with Hank’s Balanced Salt Solution, and resuspended in stimulation buffer at ~200 cells/μL density. The ligands at eight different concentrations (0.001-10,000 nM) in stimulation buffer (5 μL) containing forskolin (2 μM final concentration) were added to a 384-well plate followed by the cell suspension (5 μL; ~1000 cells/well). The plate was incubated for 30 min at room temperature. Eu-cAMP tracer (5 μL) and Ulight-anti-cAMP (5 μL) working solutions were then added to each well, and the plate was incubated at room temperature for an additional 60 min. Results were measured on a Perkin-Elmer EnVision plate reader. The EC50 values were determined by nonlinear regression analysis using Graphpad Prism 9 and are expressed as the mean of three experiments, each performed in triplicate.

hCB1 [3] = molecular target: T2, hCB1; experiment: bioSensAll ebBRET signaling profiling, hCB1; format: cell-based; parameters: host or cells: HEK293SL cells, transient PEI transfection; details: for Barr2+GRK2 hCB1 response: Barr2+GRK2 biosensor; for Gi1 hCB1 / GoB hCB1: single replicate values, FigS6a; for EC50: read-out: EC50 [95% CI]; for Emax: normalized to CP-55,940
CB1 (rCB1) [4] = molecular target: T1, CB1 (rCB1); experiment: Radioligand competition binding, [3H]-CP-55,940, rat brain membranes

In the case of `Cc1c(C(=O)OCC2CSc3ccccc3O2)cnn1Cc1ccccc1` (centres unmarked) [‘7800], the “% 1H-CP-55,940 displacement (mean) from single point screen” value (CB1 (rCB1) [1]; 10 µM, 1 µM or 300 nM by cell colour (not visible)) is reported as 80.92%, the rep1_displacement (CB1 (rCB1) [1]; Figure 1c source data, replicate 1) is reported as 81.9 and the rep2_displacement (CB1 (rCB1) [1]; Figure 1c source data, replicate 2) is reported as 79.7. For the same compound, the rep3_displacement (CB1 (rCB1) [1]; Figure 1c source data, replicate 3) was 81.1, the “cAMP assay signal, concentration-response point” value (“cAMP assay signal” for short) (hCB1 [2]; compound 0.01 nM) was 0.002674 and 0.00241 and 0.002252 and the “cAMP assay signal” value (hCB1 [2]; compound 0.1 nM) was 0.00346* and 0.001953 and 0.002364. For the same compound, the “cAMP assay signal” value (hCB1 [2]; compound 1 nM) was 0.002571 and 0.002123 and 0.001894, the “cAMP assay signal” value (hCB1 [2]; compound 10 nM) was 0.002732 and 0.002198 and 0.002584 and the “cAMP assay signal” value (hCB1 [2]; compound 100 nM) was 0.002212 and 0.002457 and 0.002193. For the same compound, the “cAMP assay signal” value (hCB1 [2]; compound 1000 nM) was 0.002381 (2×) and 0.002128, the “cAMP assay signal” value (hCB1 [2]; compound 10000 nM) was 0.002 and 0.002342 and 0.001808 and the “cAMP assay signal” value (hCB1 [2]; compound 100000 nM) was 0.001289 and 0.001131 and 0.00137. For the same compound, the “Barr2+GRK2 hCB1 response” value (hCB1 [3]; Log [Compound] (M) -4.22186) was 3.174, the “Barr2+GRK2 hCB1 response” value (hCB1 [3]; Log [Compound] (M) -4.63927) was -20.118 and the “Barr2+GRK2 hCB1 response” value (hCB1 [3]; Log [Compound] (M) -5.05788) was -51.0681. The “Barr2+GRK2 hCB1 response” value (hCB1 [3]; Log [Compound] (M) -5.47381) was -52.3444, the “Barr2+GRK2 hCB1 response” value (hCB1 [3]; Log [Compound] (M) -5.89285) was -39.9006 and the “Barr2+GRK2 hCB1 response” value (hCB1 [3]; Log [Compound] (M) -6.31878) was -51.3872. For the same compound, the “Barr2+GRK2 hCB1 response” value (hCB1 [3]; Log [Compound] (M) -6.72585) was -54.5779, the “Barr2+GRK2 hCB1 response” value (hCB1 [3]; Log [Compound] (M) -7.14267) was -56.4924 and the “Barr2+GRK2 hCB1 response” value (hCB1 [3]; Log [Compound] (M) -7.55284) was -57.7686. The “Barr2+GRK2 hCB1 response” value (hCB1 [3]; Log [Compound] (M) -8) was -46.9202, the “Barr2+GRK2 hCB1 response” value (hCB1 [3]; Log [Compound] (M) -8.22186) was -10.8649 and the “Barr2+GRK2 hCB1 response” value (hCB1 [3]; Log [Compound] (M) -8.39794) was -42.7722. For the same compound, the “Barr2+GRK2 hCB1 response” value (hCB1 [3]; Log [Compound] (M) -8.68787) was -27.1376, the “Barr2+GRK2 hCB1 response” value (hCB1 [3]; Log [Compound] (M) -9.15521) was -45.9629 and the “Barr2+GRK2 hCB1 response” value (hCB1 [3]; Log [Compound] (M) -9.61989) was -54.897. For the same compound, the “Barr2+GRK2 hCB1 response” value (hCB1 [3]; Log [Compound] (M) -10.0969) was -61.2784, the “Barr2+GRK2 hCB1 response” value (hCB1 [3]; Log [Compound] (M) -10.5529) was -43.4104 and the “Barr2+GRK2 hCB1 response” value (hCB1 [3]; Log [Compound] (M) -11.0177) was -60.6403. The “Barr2+GRK2 hCB1 response” value (hCB1 [3]; Log [Compound] (M) -11.4949) was -45.3248, the “Barr2+GRK2 hCB1 response” value (hCB1 [3]; Log [Compound] (M) -11.9208) was -40.5387 and the “Barr2+GRK2 hCB1 response” value (hCB1 [3]; Log [Compound] (M) -12.3979) was -30.0093. The “Barr2+GRK2 hCB1 response” value (hCB1 [3]; Log [Compound] (M) -12.8861) was -43.4104, the “Barr2+GRK2 hCB1 response” value (hCB1 [3]; Log [Compound] (M) -13.3979) was -3.845 and the “Gi1 hCB1” value (hCB1 [3]; Log [Compound] (M) -4.22186) was 25.6433. The “GoB hCB1” value (hCB1 [3]; Log [Compound] (M) -4.22186) was 18.8832, the “Gi1 hCB1” value (hCB1 [3]; Log [Compound] (M) -4.63927) was 18.3425 and the “GoB hCB1” value (hCB1 [3]; Log [Compound] (M) -4.63927) was 15.081. For the same compound, the “Gi1 hCB1” value (hCB1 [3]; Log [Compound] (M) -5.05788) was 16.1253, the “GoB hCB1” value (hCB1 [3]; Log [Compound] (M) -5.05788) was 13.1365 and the “Gi1 hCB1” value (hCB1 [3]; Log [Compound] (M) -5.47381) was 12.8471. For the same compound, the “GoB hCB1” value (hCB1 [3]; Log [Compound] (M) -5.47381) was 14.5949, the “Gi1 hCB1” value (hCB1 [3]; Log [Compound] (M) -5.89285) was 10.5191 and the “GoB hCB1” value (hCB1 [3]; Log [Compound] (M) -5.89285) was 11.0184. For the same compound, the “Gi1 hCB1” value (hCB1 [3]; Log [Compound] (M) -6.31878) was 9.3, the “GoB hCB1” value (hCB1 [3]; Log [Compound] (M) -6.31878) was 4.265 and the “Gi1 hCB1” value (hCB1 [3]; Log [Compound] (M) -6.72585) was 1.761. For the same compound, the “GoB hCB1” value (hCB1 [3]; Log [Compound] (M) -6.72585) was -3.895, the “Gi1 hCB1” value (hCB1 [3]; Log [Compound] (M) -7.14267) was -0.6935 and the “GoB hCB1” value (hCB1 [3]; Log [Compound] (M) -7.14267) was -5.024. For the same compound, the “Gi1 hCB1” value (hCB1 [3]; Log [Compound] (M) -7.55284) was -2.087, the “GoB hCB1” value (hCB1 [3]; Log [Compound] (M) -7.55284) was -3.843 and the “Gi1 hCB1” value (hCB1 [3]; Log [Compound] (M) -8) was -2.0396. For the same compound, the “GoB hCB1” value (hCB1 [3]; Log [Compound] (M) -8) was -4.659, the “Gi1 hCB1” value (hCB1 [3]; Log [Compound] (M) -8.22186) was 3.424 and the “GoB hCB1” value (hCB1 [3]; Log [Compound] (M) -8.22186) was -0.09294. The “Gi1 hCB1” value (hCB1 [3]; Log [Compound] (M) -8.39794) was -0.9469, the “GoB hCB1” value (hCB1 [3]; Log [Compound] (M) -8.39794) was -3.478 and the “Gi1 hCB1” value (hCB1 [3]; Log [Compound] (M) -8.68787) was -0.4717. For the same compound, the “GoB hCB1” value (hCB1 [3]; Log [Compound] (M) -8.68787) was -5.371, the “Gi1 hCB1” value (hCB1 [3]; Log [Compound] (M) -9.15521) was -0.4876 and the “GoB hCB1” value (hCB1 [3]; Log [Compound] (M) -9.15521) was -5.492. For the same compound, the “Gi1 hCB1” value (hCB1 [3]; Log [Compound] (M) -9.61989) was 0.05088, the “GoB hCB1” value (hCB1 [3]; Log [Compound] (M) -9.61989) was -8.027 and the “Gi1 hCB1” value (hCB1 [3]; Log [Compound] (M) -10.0969) was -0.4084. The “GoB hCB1” value (hCB1 [3]; Log [Compound] (M) -10.0969) was -5.128, the “Gi1 hCB1” value (hCB1 [3]; Log [Compound] (M) -10.5529) was -1.2 and the “GoB hCB1” value (hCB1 [3]; Log [Compound] (M) -10.5529) was -2.958. For the same compound, the “Gi1 hCB1” value (hCB1 [3]; Log [Compound] (M) -11.0177) was -3.528, the “GoB hCB1” value (hCB1 [3]; Log [Compound] (M) -11.0177) was -7.871 and the “Gi1 hCB1” value (hCB1 [3]; Log [Compound] (M) -11.4949) was -2.61. For the same compound, the “GoB hCB1” value (hCB1 [3]; Log [Compound] (M) -11.4949) was -5.562, the “Gi1 hCB1” value (hCB1 [3]; Log [Compound] (M) -11.9208) was -3.829 and the “GoB hCB1” value (hCB1 [3]; Log [Compound] (M) -11.9208) was -5.683. For the same compound, the “Gi1 hCB1” value (hCB1 [3]; Log [Compound] (M) -12.3979) was -3.75, the “GoB hCB1” value (hCB1 [3]; Log [Compound] (M) -12.3979) was -6.656 and the “Gi1 hCB1” value (hCB1 [3]; Log [Compound] (M) -12.8861) was -1.469. For the same compound, the “GoB hCB1” value (hCB1 [3]; Log [Compound] (M) -12.8861) was -6.1521, the “Gi1 hCB1” value (hCB1 [3]; Log [Compound] (M) -13) was 0.2409 and the “GoB hCB1” value (hCB1 [3]; Log [Compound] (M) -13) was -5.215. For the same compound, the “Gi1 hCB1” value (hCB1 [3]; Log [Compound] (M) cell empty) was -0.4876, the “GoB hCB1” value (hCB1 [3]; Log [Compound] (M) cell empty) was -5.406 and the “pEC50 [95% CI]” value (hCB1 [3]; hCB1 Gi1) was 5.2 [6.0]. For the same compound, the “pEC50 [95% CI]” value (hCB1 [3]; hCB1 GoB) was 6.2 [5.9 – 6.4], the EC50 (hCB1 [3]; hCB1 Gi1) was 6.79 µM and the EC50 (hCB1 [3]; hCB1 GoB) was 0.597 µM. The Emax (hCB1 [3]; read-out: Emax [95% CI], hCB1 Gi1) was 34%, the Emax (hCB1 [3]; read-out: Emax [95% CI], hCB1 GoB) was 21% and the “radioligand binding remaining, competition curve (Figure2e), replicate values” (shortened to “radioligand binding remaining”) (CB1 (rCB1) [4]; log[drug] -3.643) was 10.4237 and 31.3638 and 29.0535. The “radioligand binding remaining” value (CB1 (rCB1) [4]; log[drug] -4.35655) was 33.4463 and 9.669 and 4.937, the “radioligand binding remaining” value (CB1 (rCB1) [4]; log[drug] -5.07) was 28.6441 and 35.1835 and 32.9974 and the “radioligand binding remaining” value (CB1 (rCB1) [4]; log[drug] -5.783) was 65.4237 and 64.1301 and 55.9597. For the same compound, the “radioligand binding remaining” value (CB1 (rCB1) [4]; log[drug] -6.496) was 99.1808 and 92.7484 and 90.0088, the “radioligand binding remaining” value (CB1 (rCB1) [4]; log[drug] -7.21) was 109.096 and 99.3733 and 111.043 and the “radioligand binding remaining” value (CB1 (rCB1) [4]; log[drug] -7.923) was 105.847 and 88.1826 and 105.215. The “radioligand binding remaining” value (CB1 (rCB1) [4]; log[drug] -8.636) was 93.4322 and 101.298 and 96.7572 and the “pKi [95% CI]” value (CB1 (rCB1) [4]; rCB1) was 6.0 [5.78 – 6.21].
